According to publication PMC9828099, “Aromatic disulfides as potential inhibitors against interaction between deaminase APOBEC3G and HIV infectivity factor” (Acta Biochimica et Biophysica Sinica, 2022):

Legend:
[1] = system: HIV-1; conditions: MT4 and MAGI cells; cited from earlier work
[2] = target: T1, A3G-sNTD (Homo sapiens, UniProt Q9HC16); assay: SPR binding of small molecules to A3G-sNTD; conditions: read-out: KD, binding affinity to A3G-sNTD
T1 sequence (Q9HC16 1-196): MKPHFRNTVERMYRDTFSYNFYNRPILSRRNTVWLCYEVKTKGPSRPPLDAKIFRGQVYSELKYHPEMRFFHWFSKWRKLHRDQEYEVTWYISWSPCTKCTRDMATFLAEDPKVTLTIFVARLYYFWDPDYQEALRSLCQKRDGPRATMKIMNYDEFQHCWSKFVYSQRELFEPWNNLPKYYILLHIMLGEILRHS
Description: (§1) Small molecules in the concentration of 500 μM were injected at 30 μL/min. The contact time is 100 s and dissociation time is 120 s. The chip was regenerated by glycine (pH 1.5) at a flow rate of 30 μL/min (30 s contact time). Then small molecules with high RU were selected to perform the 2 ^nd round screening. […] The data analyses were performed by BIAcore Evaluation.

[3] = target: T2, rVif (Human immunodeficiency virus type 1 group M subtype B, UniProt P12504); type: binding, HIV-1; conditions: SPR 1st round screening, small molecules at 500 μM
T2 construct: The cDNAs of full-length Vif (residues 1–192) was sub-cloned into the vector pET28a; made in house
Description: as §1

[4] = system: Vif; conditions: fluorescent intensity of 293T cells; read-out: IC50, inhibition of Vif activity; cited from earlier work
[5] = system: interaction between A3G and Vif; parameters: method as in PMID 25724652; conditions: read-out: IC50, block of interaction between A3G and Vif; cited from earlier work
[6] = target: full-length APOBEC3G (A3G-FL) (UniProt Q9HC16); assay: SPR

T2 sequence (P12504 whole entry, the tested form may be a part): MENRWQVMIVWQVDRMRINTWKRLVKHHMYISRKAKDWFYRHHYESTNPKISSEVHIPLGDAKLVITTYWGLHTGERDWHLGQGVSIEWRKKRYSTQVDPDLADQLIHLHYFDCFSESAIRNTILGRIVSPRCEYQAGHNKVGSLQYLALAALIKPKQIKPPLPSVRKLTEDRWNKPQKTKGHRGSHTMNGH

## O=C(O)Cn1c2c(c3c1=C(c1ccc(O)c(O)c1)C(=O)c1cc(O)c(OS(=O)(=O)O)cc1-3)-c1cc(O)c(O)cc1C(=O)C=2c1ccc(O)c(O)c1 [Baculiferin M]
[1]
  IC50, HIV-1 replication: 0.5 to 7 µg/mL

## CCCCn1c(SCc2c(C)noc2C)nc2cc(S(N)(=O)=O)ccc21 [MM-2]
[2]
  Kd: 19.9 ± 11 µM
[3]
  relative response value of binding to rVif: 130.4 RU

## COc1ccccc1NC(=O)c1ccccc1Sc1ccc([N+](=O)[O-])cc1 [RN-18]
[4]
  IC50: 4.5 µM

## O=C(O)Cn1c2c(c3c1=C(c1ccc(O)c(O)c1)C(=O)c1cc(O)c(O)cc1-3)-c1cc(O)c(O)cc1C(=O)C=2c1ccc(O)c(O)c1 [Baculiferin L]
[1]
  IC50, HIV-1 replication: 0.5 to 7 µg/mL

## C/C(=C/C(=O)c1cccnc1)Nc1ccc(O)cc1 [N.41]
[5]
  IC50: 2.18 µM

## Vif-CBFβ-ELOB-ELOC (VCBC) complex (from UniProt P12504;Q13951;Q15370;Q15369)
[6]
  Kd: 0.00071 µM
